In patent US20230022400A1, “IMMUNOMODULATORS” (Bristol-Myers Squibb Company, priority 2019, published 2023) one finds IC50 data, which are given here for 6 compounds.

Where a SMILES comes first, the peptide text is derived from it. Bridges are numbered along the chain shown (N, C = ends). [ ]: non-standard residue; d: D form. The star is where a group is joined. Trp(1-CH2COOH) = N[C@@H](Cc1cn(CC(=O)O)c2ccccc12)C(=O)O; Hyp = O=C(O)[C@@H]1C[C@@H](O)CN1; X10 = c1ccc2c(c1)sc1ncnc(*)c12; X16 = c1ccc2c(c1)sc1c(*)ncnc12; X5 = c1ccc2c(c1)oc1c(*)ncnc12; NMeNle = CCCC[C@H](NC)C(=O)O; X4 = c1nc(*)c2c3c(sc2n1)CCC3; NMeA = CN[C@@H](C)C(=O)O; Dab = NCC[C@H](N)C(=O)O; Dap = NC[C@H](N)C(=O)O

The target in the experiment is T1, PD-1/PD-L1 interaction (PD-1-Ig / PD-L1-His) (Homo sapiens, UniProt Q9NZQ7).
T1 construct: TVMV protease site (linker) (C); made in house; host or cells: HEK293T cells
The experiment is described as follows: PD-1/PD-L1 Homogenous Time-Resolved Fluorescence (HTRF) binding assay. The conditions noted are these: PD-L1-His 10 nM final, PD-1-Ig 20 nM final; inhibitors pre-incubated with PD-L1-His for 15 m. The method in brief:
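Inhibitors pre-incubated 15 min with PD-L1-His (10 nM final) in dPBS, 0.1% BSA, 0.05% Tween-20, then 15 min with PD-1-Ig (20 nM final). Eu-cryptate anti-Ig (1 nM) and APC anti-His (20 nM) added, 30 min equilibration; HTRF 665/620 nm ratio. Human ECD proteins from HEK293T.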

T1 sequence (Q9NZQ7 18-239): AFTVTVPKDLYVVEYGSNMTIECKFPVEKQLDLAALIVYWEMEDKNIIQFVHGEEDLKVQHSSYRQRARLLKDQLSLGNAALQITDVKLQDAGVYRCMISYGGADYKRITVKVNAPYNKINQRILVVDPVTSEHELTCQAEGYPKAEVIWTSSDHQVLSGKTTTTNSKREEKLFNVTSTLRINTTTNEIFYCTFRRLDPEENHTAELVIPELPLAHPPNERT

For the compound `CCCC[C@H]1C(=O)N(C)[C@@H](CCCC)C(=O)N[C@@H](CC(C)C)C(=O)N[C@H](C(=O)NCC(N)=O)CSCC(=O)N[C@@H](Cc2ccc(O)cc2)C(=O)N(C)[C@@H](C)C(=O)N[C@@H](CC(N)=O)C(=O)N2CCC[C@H]2C(=O)N[C@@H](CNc2ncnc3c2oc2ccccc23)C(=O)N[C@@H](CC(C)C)C(=O)N2C[C@H](O)C[C@H]2C(=O)N[C@@H](Cc2c[nH]c3ccccc23)C(=O)N[C@@H](CCNc2ncnc3c2oc2ccccc23)C(=O)N[C@@H](Cc2cn(CC(=O)O)c3ccccc23)C(=O)N1C` [Compound 21010] ({CH2CO}-Y[NMeA]NP[Dap](X5)L[Hyp]W[Dab](X5)[Trp(1-CH2COOH)][NMeNle][NMeNle]LCG-NH2; thioether N-14), the IC50 is 3.9 nM. For `CCCC[C@H]1C(=O)N(C)[C@@H](CCCC)C(=O)N[C@@H](CC(C)C)C(=O)N[C@H](C(=O)NCC(N)=O)CSCC(=O)N[C@@H](Cc2ccc(O)cc2)C(=O)N(C)[C@@H](C)C(=O)N[C@@H](CC(N)=O)C(=O)N2CCC[C@H]2C(=O)N[C@@H](CNc2ncnc3sc4c(c23)CCC4)C(=O)N[C@@H](CC(C)C)C(=O)N2C[C@H](O)C[C@H]2C(=O)N[C@@H](Cc2c[nH]c3ccccc23)C(=O)N[C@@H](CCN)C(=O)N[C@@H](Cc2cn(CC(=O)O)c3ccccc23)C(=O)N1C` [Compound 21011] ({CH2CO}-Y[NMeA]NP[Dap](X4)L[Hyp]W[Dab][Trp(1-CH2COOH)][NMeNle][NMeNle]LCG-NH2; thioether N-14) the value was 2.6 nM; for `CCCC[C@H]1C(=O)N(C)[C@@H](CCCC)C(=O)N[C@@H](CC(C)C)C(=O)N[C@H](C(=O)NCC(N)=O)CSCC(=O)N[C@@H](Cc2ccc(O)cc2)C(=O)N(C)[C@@H](C)C(=O)N[C@@H](CC(N)=O)C(=O)N2CCC[C@H]2C(=O)N[C@@H](CNc2ncnc3sc4c(c23)CCC4)C(=O)N[C@@H](CC(C)C)C(=O)N2C[C@H](O)C[C@H]2C(=O)N[C@@H](Cc2c[nH]c3ccccc23)C(=O)N[C@@H](CCNc2ncnc3sc4c(c23)CCC4)C(=O)N[C@@H](Cc2cn(CC(=O)O)c3ccccc23)C(=O)N1C` [Compound 21012] ({CH2CO}-Y[NMeA]NP[Dap](X4)L[Hyp]W[Dab](X4)[Trp(1-CH2COOH)][NMeNle][NMeNle]LCG-NH2; thioether N-14), 14 nM; for `CCCC[C@H]1C(=O)N(C)[C@@H](CCCC)C(=O)N[C@@H](CC(C)C)C(=O)N[C@H](C(=O)NCC(N)=O)CSCC(=O)N[C@@H](Cc2ccc(O)cc2)C(=O)N(C)[C@@H](C)C(=O)N[C@@H](CC(N)=O)C(=O)N2CCC[C@H]2C(=O)N[C@@H](CNc2ncnc3c2oc2ccccc23)C(=O)N[C@@H](CC(C)C)C(=O)N2C[C@H](O)C[C@H]2C(=O)N[C@@H](Cc2c[nH]c3ccccc23)C(=O)N[C@@H](CCN)C(=O)N[C@@H](Cc2cn(CC(=O)O)c3ccccc23)C(=O)N1C` [Compound 21013] ({CH2CO}-Y[NMeA]NP[Dap](X5)L[Hyp]W[Dab][Trp(1-CH2COOH)][NMeNle][NMeNle]LCG-NH2; thioether N-14), 3.4 nM.

Compound `CCCC[C@H]1C(=O)N(C)[C@@H](CCCC)C(=O)N[C@@H](CC(C)C)C(=O)N[C@H](C(=O)NCC(N)=O)CSCC(=O)N[C@@H](Cc2ccc(O)cc2)C(=O)N(C)[C@@H](C)C(=O)N[C@@H](CC(N)=O)C(=O)N2CCC[C@H]2C(=O)N[C@@H](CNc2ncnc3c2sc2ccccc23)C(=O)N[C@@H](CC(C)C)C(=O)N2C[C@H](O)C[C@H]2C(=O)N[C@@H](Cc2c[nH]c3ccccc23)C(=O)N[C@@H](CCNc2ncnc3c2sc2ccccc23)C(=O)N[C@@H](Cc2cn(CC(=O)O)c3ccccc23)C(=O)N1C` [Compound 21014] ({CH2CO}-Y[NMeA]NP[Dap](X16)L[Hyp]W[Dab](X16)[Trp(1-CH2COOH)][NMeNle][NMeNle]LCG-NH2; thioether N-14) showed an IC50 of 5.7 nM. As to `CCCC[C@H]1C(=O)N(C)[C@@H](CCCC)C(=O)N[C@@H](CC(C)C)C(=O)N[C@H](C(=O)NCC(N)=O)CSCC(=O)N[C@@H](Cc2ccc(O)cc2)C(=O)N(C)[C@@H](C)C(=O)N[C@@H](CC(N)=O)C(=O)N2CCC[C@H]2C(=O)N[C@@H](CNc2ncnc3sc4ccccc4c23)C(=O)N[C@@H](CC(C)C)C(=O)N2C[C@H](O)C[C@H]2C(=O)N[C@@H](Cc2c[nH]c3ccccc23)C(=O)N[C@@H](CCNc2ncnc3sc4ccccc4c23)C(=O)N[C@@H](Cc2cn(CC(=O)O)c3ccccc23)C(=O)N1C` [Compound 21015] ({CH2CO}-Y[NMeA]NP[Dap](X10)L[Hyp]W[Dab](X10)[Trp(1-CH2COOH)][NMeNle][NMeNle]LCG-NH2; thioether N-14), the IC50 was 18 nM.
